What was measured:
Assay type in all cases: in vivo
Boophilus microplus = Boophilus microplus test (injection); conditions: application rate 20 μg/animal, adult engorged females, after 7 days
How it was run: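 Compound dissolved and diluted in DMSO, then injected into the abdomen of adult engorged female ticks, five per dose. Ticks held in a climate chamber and fertile egg deposition monitored. Read at 7 days as %, 100% = all eggs infertile, 0% = all fertile.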

Musca domestica = Musca domestica test (sugar sponge); conditions: for activity (mortality in %): application rate 100 ppm, adults, after 2 days
Protocol: (§1) Solvent: dimethyl sulfoxide
To produce a suitable preparation of active compound, 10 mg of active compound are dissolved in 0.5 ml solvent, and the concentrate is diluted with water to the desired concentration. Prior to the assay, a piece or kitchen sponge is soaked with a mixture of sugar and compound solution and placed into a container. 10 adults (Musca domestica) are placed into the container and closed with a perforated lid. After 2 days mortality in % is determined. 100% means that all the flies have been killed; 0% means that none of the flies have been killed.

Amblyomma hebraeum = Amblyomma hebraeum test (AMBYHE), nymph immersion
Protocol: as §1
To produce a suitable preparation of active compound, 10 mg of active compound are dissolved in 0.5 ml solvent, and the concentrate is diluted with water to the desired concentration. Nymphs of the tick Amblyomma hebraeum are placed in perforated plastic beakers and immersed in aqueous compound solution for one minute. Ticks are transferred to a filter paper in a Petri dish and incubated in a climate chamber for 42 days.
After 42 days mortality in % is determined 100% means that all the ticks have been killed; 0% means that none of the ticks have been killed.

[1] = tested on: organic phosphorus agent- and carbamate agent-resistant Myzus persicae; assay: Test for organic phosphorus agent- and carbamate agent-resistant Myzus persicae (spray, eggplant); conditions: 100 ppm active ingredient, 7 days
Protocol: If not mentioned otherwise, all sample solutions were prepared as described in Biological Test Example 1 and diluted to the appropriate (predetermined) concentrations.
About 30 to 50 of grown organic phosphorus agent- and carbamate agent-resistant Myzus persicae per seedling were inoculated to leaves at 2-leaf stage of eggplants grown in a pot of 6 cm in diameter, to which, after 1 day from the inoculation, the above prepared water-diluted solution of above active compound of the predetermined concentration was sufficiently sprayed with a spray gun. After the spraying, the pot was left in a greenhouse at room temperature for 7 days, followed by the pest-controlling rate calculated. The test was repeated twice.

Lucilia cuprina larvae = assay: Lucilia cuprina test (larvae in minced horse meat); conditions: Lucilia cuprina, 48 h, read-out: activity (mortality in %)
Protocol: as §1
To produce a suitable preparation of active compound, 10 mg of active compound are dissolved in 0.5 ml solvent, and the concentrate is diluted with water to the desired concentration. Approximately 20-30 (Lucilia cuprina larvae) are transferred into a test tube containing 1 cm^3 of minced horse meat and 0.5 ml aqueous dilution of test compound. After 2 days mortality in % is determined 100% means that all the larvae have been killed; 0% means that none of the larvae have been killed.

Ctenocephalides felis = Ctenocephalides felis test (CTECFE), blood feeding; conditions: 48 h, read-out: activity (mortality in %)
Protocol: as §1
To produce a suitable preparation of active compound, 10 mg of active compound are dissolved in 0.5 ml solvent, and the concentrate is diluted with cattle blood to the desired concentration. Approximately 10 to 15 adult unfed (Ctenocepahlides felis) are placed in flea chambers. The blood chamber, are sealed with parafilm on the bottom are filled with cattle blood supplied with compound solution and placed on top of the flea chamber, so that the fleas are able to suck the blood. The blood chamber is heated to 37° C. whereas the flea chamber is kept at room temperature. After 2 days mortality in % is determined 100% means that all the fleas have been killed; 0% means that none of the fleas have been killed.

## N#CCC(=O)NCc1ccc(N2CCC(c3cc(Cl)cc(Cl)c3)(C(F)(F)F)C2)cc1Cl (centres unmarked) [1-39]
Boophilus microplus
  activity (100% means that all eggs are infertile): 100%
Musca domestica
  activity (mortality in %): 90%

## CCC(=O)NCc1ccc(N2CCC(c3cc(Cl)cc(Cl)c3)(C(F)(F)F)C2)cc1C(F)(F)F (centres unmarked) [1-143]
Amblyomma hebraeum; 0.8 ppm, comparison with WO2008/128711
  Activity at 0.8 ppm: 100%
Amblyomma hebraeum; 4 ppm, comparison with WO2008/128711
  Activity at 4 ppm: 100%
Boophilus microplus
  activity (100% means that all eggs are infertile): 100%
[1]
  insecticidal rate (pest-controlling rate): 100%

## O=C(NCc1ccc(N2CCC(c3cc(Cl)cc(Cl)c3)(C(F)(F)F)C2)cc1C(F)(F)F)c1ccc(Cl)nc1 (centres unmarked) [1-198, 6-chloro-N-{4-[3-(3,5-dichlorophenyl)-3-(trifluoromethyl)-pyrrolidin-1-yl]-2-(trifluoromethyl)benzyl}pyridine-3-carboxyamide]
Lucilia cuprina larvae
  mortality at 100 ppm: 100%
Boophilus microplus
  activity (100% means that all eggs are infertile): 100%
Ctenocephalides felis
  mortality at 100 ppm: 90%

## CCNC(=O)NCc1ccc(N2CCC(c3cc(Cl)cc(Cl)c3)(C(F)(F)F)C2)cc1C(F)(F)F (centres unmarked) [1-220]
Boophilus microplus
  activity (100% means that all eggs are infertile): 100%
Musca domestica
  activity (mortality in %): 90%

## C#CCNC(=O)NCc1ccc(N2CCC(c3cc(Cl)cc(Cl)c3)(C(F)(F)F)C2)cc1C(F)(F)F (centres unmarked) [1-231]
Boophilus microplus
  activity (100% means that all eggs are infertile): 100%
Musca domestica
  activity (mortality in %): 95%

## O=C(NCCC(F)(F)F)NCc1ccc(N2CCC(c3cc(Cl)cc(Cl)c3)(C(F)(F)F)C2)cc1C(F)(F)F (centres unmarked) [1-238]
Amblyomma hebraeum; application rate 100 ppm, nymphs, after 42 days
  activity (mortality in %): 85%
Boophilus microplus
  activity (100% means that all eggs are infertile): 100%
Musca domestica
  activity (mortality in %): 90%

## O=C(CC(F)(F)F)NCc1ccc(N2CCC(c3cc(C(F)(F)F)cc(C(F)(F)F)c3)(C(F)(F)F)C2)cc1Cl (centres unmarked) [1-309]
Boophilus microplus
  activity (100% means that all eggs are infertile): 100%
[1]
  insecticidal rate (pest-controlling rate): 100%

## O=C(CC(F)(F)F)NCc1ccc(N2CCC(c3cc(C(F)(F)F)cc(C(F)(F)F)c3)(C(F)(F)F)C2)cc1Br (centres unmarked) [1-314]
Boophilus microplus
  activity (100% means that all eggs are infertile): 100%
[1]
  insecticidal rate (pest-controlling rate): 100%

## CCCC(=O)NCc1ccc(N2CCC(c3cc(Cl)c(Cl)c(Cl)c3)(C(F)(F)F)C2)cc1C(F)(F)F (centres unmarked) [1-328]
[1]
  insecticidal rate (pest-controlling rate): 100%

## CCC(=O)NCc1ccc(N2CCC(c3cc(Cl)cc(C(F)(F)F)c3)(C(F)(F)F)C2)cc1C(F)(F)F (centres unmarked) [1-356]
[1]
  insecticidal rate (pest-controlling rate): 100%

## CCSCC(=O)NCc1ccc(N2CCC(c3cc(Cl)cc(Cl)c3)(C(F)(F)F)C2)cc1C(F)(F)F (centres unmarked) [1-499]
Boophilus microplus
  activity (100% means that all eggs are infertile): 100%
Musca domestica
  activity (mortality in %): 90%

## CCC(=O)NCc1cnc(N2CCC(c3cc(Cl)c(Cl)c(Cl)c3)(C(F)(F)F)C2)nc1C(F)(F)F (centres unmarked) [3-142]
Boophilus microplus
  activity (100% means that all eggs are infertile): 100%
[1]
  insecticidal rate (pest-controlling rate): 100%

## O=C(NCC(F)(F)F)c1sc(N2CCC(c3cc(Cl)c(Cl)c(Cl)c3)(C(F)(F)F)C2)nc1C(F)(F)F (centres unmarked) [4-21]
Boophilus microplus
  activity (100% means that all eggs are infertile): 100%
Musca domestica
  activity (mortality in %): 90%

## CCC(=O)NCc1sc(N2CCC(c3cc(Cl)cc(Cl)c3)(C(F)(F)F)C2)nc1C(F)(F)F (centres unmarked) [5-4]
Boophilus microplus
  activity (100% means that all eggs are infertile): 100%
Musca domestica
  activity (mortality in %): 85%

## O=C(CC(F)(F)F)NCc1sc(N2CCC(c3cc(Cl)cc(Cl)c3)(C(F)(F)F)C2)nc1C(F)(F)F (centres unmarked) [5-22]
Boophilus microplus
  activity (100% means that all eggs are infertile): 100%
Musca domestica
  activity (mortality in %): 95%

## CCC(=O)NCc1sc(N2CCC(c3cc(Cl)c(Cl)c(Cl)c3)(C(F)(F)F)C2)nc1C(F)(F)F (centres unmarked) [5-142, N-({2-[3-(3,4,5-trichlorophenyl)-3-(trifluoromethyl)pyrrolidin-1-yl]-4-(trifluoromethyl)-1,3-thiazol-5-yl}methyl)propanamide]
Lucilia cuprina larvae
  mortality at 100 ppm: 100%
Boophilus microplus
  activity (100% means that all eggs are infertile): 100%
Musca domestica; Musca domestica, 48 h, read-out: activity (mortality in %)
  mortality at 100 ppm: 100%
Ctenocephalides felis
  mortality at 100 ppm: 100%

## O=C(CC(F)(F)F)NCc1sc(N2CCC(c3cc(C(F)(F)F)cc(C(F)(F)F)c3)(C(F)(F)F)C2)nc1C(F)(F)F (centres unmarked) [5-150]
Boophilus microplus
  activity (100% means that all eggs are infertile): 100%
Musca domestica
  activity (mortality in %): 95%

Reference: patent US9266830B2, “Pesticidal arylpyrrolidines” (Bayer Intellectual Property GmbH, priority 2007, dated 2016)
